Counter-ions that a name gives are not always drawn.
target: T1, human GYS1 (glycogen synthase) (Homo sapiens, UniProt P13807); experiment: Measurement of glycogen synthase activity; assay type: biochemical; details: concentration causing 50% increase in relative activity; 100% = compound of Example 1 of WO/2011/058154 at 10 μM; 10 mM Glucose-6-phosphate; 37° C. for 25 minutes (Examples 1 to 61 and 67 to 82) or 20 minutes (Examples 62 to 66); absorbance at 340 nm
T1 construct: made in house; host or cells: HEK293T
T1 sequence (P13807 1-737): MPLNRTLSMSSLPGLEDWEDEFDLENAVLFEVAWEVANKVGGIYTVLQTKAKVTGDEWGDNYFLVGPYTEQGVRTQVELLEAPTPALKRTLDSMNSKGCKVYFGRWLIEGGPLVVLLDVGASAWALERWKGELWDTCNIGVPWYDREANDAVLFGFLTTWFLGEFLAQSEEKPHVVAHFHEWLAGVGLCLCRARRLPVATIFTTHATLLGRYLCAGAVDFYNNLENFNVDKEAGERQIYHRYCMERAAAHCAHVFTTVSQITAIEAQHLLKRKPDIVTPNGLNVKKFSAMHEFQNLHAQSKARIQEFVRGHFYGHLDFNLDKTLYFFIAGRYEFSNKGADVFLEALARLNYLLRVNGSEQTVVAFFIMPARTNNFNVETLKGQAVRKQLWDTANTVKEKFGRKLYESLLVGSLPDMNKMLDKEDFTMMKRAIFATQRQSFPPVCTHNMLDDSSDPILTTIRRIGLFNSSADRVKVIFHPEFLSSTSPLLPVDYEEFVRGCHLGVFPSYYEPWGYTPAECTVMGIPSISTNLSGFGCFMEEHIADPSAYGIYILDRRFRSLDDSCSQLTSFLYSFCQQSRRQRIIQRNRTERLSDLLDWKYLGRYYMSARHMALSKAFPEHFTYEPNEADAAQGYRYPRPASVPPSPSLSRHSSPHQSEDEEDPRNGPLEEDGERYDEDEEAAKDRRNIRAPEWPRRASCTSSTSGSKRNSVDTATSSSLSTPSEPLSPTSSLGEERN
Description: A human GYS1 expression plasmid (pCDNA3.1(+)-hGYS1) was constructed by the following method. By using a human skeletal muscle cDNA of Human MTC Panel I (Takara Bio Inc., 636742) as a template, a human GYS1 gene was amplified by a PCR method using cloning primers (Forward Primer: ATGCCTTTAAACCGCAC, Reverse Primer: TTAGTTACGCTCCTCGC). By using the amplified human GYS1 sequence as a template, restriction enzyme sequences were added by a PCR method using sub-cloning primers (Forward Primer: […], and Reverse Primer: […]), and then the human GYS1 gene was introduced between Xho I and Xba I sites of pCDNA3.1(+) (Invitrogen, V790-20).
Glycogen synthase was prepared by the following method. Human kidney-derived HEK293T cells were seeded in a dish (Thermo Fisher Scientific K.K., 168381) by using a 10% FBS-containing DMEM (Nacalai Tesque, Inc., 0845874) medium, and cultured overnight. Then, by using Lipofectamine LTX (Invitrogen, 15338-100), the cells were transfected with the human GYS1 expression vector according to the attached manual. After culturing under conditions of 37° C. and 5% CO2 for 2 days, the resultant was lysed in a lysis buffer (50 mM Tris-HCl (pH 8.0), 10 mM EDTA, 2 mM EGTA, 100 mM NaF, 1 mM PMSF, 1 mM DTT, and 1× Complete (Roche, 1873580)), homogenized, and then centrifuged at 16000×g at 4° C. for 15 minutes. The precipitated fraction re-dissolved by adding the lysis buffer was used as a glycogen synthase for evaluation.
The glycogen synthase activity was measured by the following method. To a polystyrene 96-well plate, solutions each containing 30 mM glycylglycine (pH 7.3), 40 mM KCl, 20 mM MgCl2, 9.2% DMSO containing one of the test compounds at one of various concentrations, and 10 mM Glucose-6-phosphate (Sigma-Aldrich, G7879) were added at 12 μL/well.
Next, a substrate solution containing 30 mM glycylglycine (pH 7.3), 4.3 mg/mL glycogen (Sigma-Aldrich, G8876), 21.6 mM UDP-glucose (Sigma-Aldrich, U4625), 21.6 mM phosphoenolpyruvic acid (Sigma-Aldrich, P0564), and 4.05 mM NADH (Sigma-Aldrich, N8129) was added at 18 μL/well.
Moreover, an enzyme solution containing 50 mM Tris-HCl (pH 8.0), 27 mM DTT (NACALAI TESQUE, INC., 14128-04), 0.2 mg/mL bovine serum albumin, 0.17 mg/mL glycogen synthase, and 1.5 μL pyruvate kinase/lactate dehydrogenase solution (Sigma-Aldrich, P0294) was added at 18 μL/well to prepare reaction solutions. After the reaction solutions were incubated (at 37° C. for 25 minutes for Examples 1 to 61 and 67 to 82 or at 37° C. for 20 minutes for Examples 62 to 66), the absorbance at 340 nm was measured by using Benchmark Plus (Bio-Rad Laboratories, Inc.).
The activity of each test compound was calculated by the following method. The absorbance at 340 nm of the reaction solution containing the compound and DMSO was subtracted from the absorbance at 340 nm of a reaction solution not containing the compound but containing only DMSO to calculate the change (ΔA340) in absorbance. The relative activity (%) of the test compound at each of the various concentrations was calculated, where the ΔA340 of a reaction solution containing the compound of Example 1 of WO/2011/058154 at a final concentration of 10 μM was taken as 100%. EC50 representing the concentration of the compound at which an increase in the relative activity by 50% was caused was calculated using XLfit (idbs).

Going from `CS(=O)(=O)NCCN(CC(=O)O)C(=O)c1cccc(COc2ccc(-c3cc(F)c(F)c4ccoc34)cc2)c1` [Example 16, 2-[[3-[[4-(4,5-Difluorobenzofuran-7-yl)phenoxy]methyl]benzoyl]-[2-(methanesulfonamido)ethyl]amino]acetic Acid] to `CC(C)(O)CCN(CC(=O)O)C(=O)c1cccc(COc2ccc(-c3cc(F)c(F)c4ccoc34)cc2)c1` [Example 18, 2-[[3-[[4-(4,5-Difluorobenzofuran-7-yl)phenoxy]methyl]benzoyl]-(3-hydroxy-3-methyl-butyl)amino]acetic Acid], the EC50 falls from 0.016 µM to 0.0073 µM (2.2-fold).

First: CSc1cc(F)c(F)cc1-c1ccc(OCc2cccc(C(=O)N(CCNS(C)(=O)=O)CC(=O)O)c2)cc1 [Example 17, 2-[[3-[[4-(4,5-Difluoro-2-methylsulfanyl-phenyl)phenoxy]methyl]benzoyl]-[2-(methanesulfonamido)ethyl]amino]acetic Acid]
Second: CSc1cc(F)c(F)cc1-c1ccc(OCc2cccc(C(=O)N(CCS(C)(=O)=O)CC(=O)O)c2)cc1 [Example 31, 2-[[3-[[4-(4,5-Difluoro-2-methylsulfanyl-phenyl)phenoxy]methyl]benzoyl]-(2-methylsulfonylethyl)amino]acetic Acid]
The EC50 of the first is 1.8-fold lower: 0.01 µM for the first, 0.018 µM for the second.

First: CSc1cc(F)c(F)cc1-c1ccc(OCc2cccc(C(=O)N(CC(=O)O)Cc3ccncc3)c2)cc1 [Example 19, 2-[[3-[[4-(4,5-Difluoro-2-methylsulfanyl-phenyl)phenoxy]methyl]benzoyl]-(4-pyridylmethyl)amino]acetic Acid Trifluoroacetate]
Second: CSc1cc(F)c(F)cc1-c1ccc(OCc2cccc(C(=O)N(CC(=O)O)Cc3ccccn3)c2)cc1 [Example 20, 2-[[3-[[4-(4,5-Difluoro-2-methylsulfanyl-phenyl)phenoxy]methyl]benzoyl]-(2-pyridylmethyl)amino]acetic Acid Trifluoroacetate]
The EC50 of the first is 1.9-fold lower: 0.0034 µM for the first, 0.0065 µM for the second.

First: CSc1cc(F)c(F)cc1-c1ccc(OCc2cccc(C(=O)N(CCC(C)O)CC(=O)O)c2)cc1 (centres unmarked) [Example 21, 2-[[3-[[4-(4,5-Difluoro-2-methylsulfanyl-phenyl)phenoxy]methyl]benzoyl]-(3-hydroxybutyl)amino]acetic Acid]
Second: CNCCN(CC(=O)O)C(=O)c1cccc(COc2ccc(-c3cc(F)c(F)cc3SC)cc2)c1 [Example 28, 2-[[3-[[4-(4,5-Difluoro-2-methylsulfanyl-phenyl)phenoxy]methyl]benzoyl]-[2-(methylamino)ethyl]amino]acetic Acid Trifluoroacetate]
The EC50 of the first is 1.5-fold higher: 0.015 µM for the first, 0.01 µM for the second. The second is the more potent here.

`CSc1cc(F)c(F)cc1-c1ccc(OCc2cccc(C(=O)N(CC(=O)O)[C@@H](C)C(N)=O)c2)cc1` [Example 22, 2-[[(1S)-2-Amino-1-methyl-2-oxo-ethyl]-[3-[[4-(4,5-difluoro-2-methylsulfanyl-phenyl)phenoxy]methyl]benzoyl]amino]acetic Acid] and `CSc1cc(F)c(F)cc1-c1ccc(OCc2cccc(C(=O)N(CC(=O)O)CC(=O)O)c2)cc1` [Example 27, 2-[Carboxymethyl-[3-[[4-(4,5-difluoro-2-methylsulfanyl-phenyl)phenoxy]methyl]benzoyl]amino]acetic Acid] are within 1.5-fold of each other in EC50: 0.013 µM for the first, 0.01 µM for the second.

`COC(C)(C)CN(CC(=O)O)C(=O)c1cccc(COc2ccc(-c3cc(F)c(F)cc3SC)cc2)c1` [Example 23, 2-[[3-[[4-(4,5-Difluoro-2-methylsulfanyl-phenyl)phenoxy]methyl]benzoyl]-(2-methoxy-2-methyl-propyl)amino]acetic Acid] and `COCCCN(CC(=O)O)C(=O)c1cccc(COc2ccc(-c3cc(F)c(F)cc3SC)cc2)c1` [Example 30, 2-[[3-[[4-(4,5-Difluoro-2-methylsulfanyl-phenyl)phenoxy]methyl]benzoyl]-(3-methoxypropyl)amino]acetic Acid] are within 1.5-fold of each other in EC50: 0.017 µM for the first, 0.015 µM for the second.

`CCN(CC)CCN(CC(=O)O)C(=O)c1cccc(COc2ccc(-c3cc(F)c(F)cc3SC)cc2)c1` [Example 24, 2-[2-Diethylaminoethyl-[3-[[4-(4,5-difluoro-2-methylsulfanyl-phenyl)phenoxy]methyl]benzoyl]amino]acetic Acid Trifluoroacetate] and `CSc1cc(F)c(F)cc1-c1ccc(OCc2cccc(C(=O)N(CCCN(C)C)CC(=O)O)c2)cc1` [Example 26, 2-[[3-[[4-(4,5-Difluoro-2-methylsulfanyl-phenyl)phenoxy]methyl]benzoyl]-[3-(dimethylamino)propyl]amino]acetic Acid Trifluoroacetate] are within 1.5-fold of each other in EC50: 0.011 µM for the first, 0.014 µM for the second.

Compared with `CSc1cc(F)c(F)cc1-c1ccc(OCc2cccc(C(=O)N(CC(=O)O)CC(=O)N3CCCC3)c2)cc1` [Example 25, 2-[[3-[[4-(4,5-Difluoro-2-methylsulfanyl-phenyl)phenoxy]methyl]benzoyl]-(2-oxo-2-pyrrolidin-1-yl-ethyl)amino]acetic Acid], `CSc1cc(F)c(F)cc1-c1ccc(OCc2cccc(C(=O)N(CC(=O)O)CC3CCOCC3)c2)cc1` [Example 34, 2-[[3-[[4-(4,5-Difluoro-2-methylsulfanyl-phenyl)phenoxy]methyl]benzoyl]-(tetrahydropyran-4-ylmethyl)amino]acetic Acid] is 1.6-fold higher in EC50: 0.015 µM for the first, 0.024 µM for the second. The first is the more potent here.

`CSc1cc(F)c(F)cc1-c1ccc(OCc2cccc(C(=O)N3C[C@H](O)C[C@H]3C(=O)O)c2)cc1` [Example 29, (2S,4R)-1-[3-[[4-(4,5-Difluoro-2-methylsulfanyl-phenyl)phenoxy]methyl]benzoyl]-4-hydroxy-pyrrolidine-2-carboxylic Acid] and `CSc1cc(F)c(F)cc1-c1ccc(OCc2cccc(C(=O)N(CC(=O)O)C3CCNCC3)c2)cc1` [Example 36, 2-[[3-[[4-(4,5-Difluoro-2-methylsulfanyl-phenyl)phenoxy]methyl]benzoyl]-(4-piperidyl)amino]acetic Acid Trifluoroacetate] are within 1.5-fold of each other in EC50: 0.019 µM for the first, 0.021 µM for the second.

`CSc1cc(F)c(F)cc1-c1ccc(OCc2cccc(C(=O)N(CCCS(C)(=O)=O)CC(=O)O)c2)cc1` [Example 32, 2-[[3-[[4-(4,5-Difluoro-2-methylsulfanyl-phenyl)phenoxy]methyl]benzoyl]-(3-methylsulfonylpropyl)amino]acetic Acid] and `CSc1cc(F)c(F)cc1-c1ccc(OCc2cccc(C(=O)N(CC(=O)O)CC3CCNCC3)c2)cc1` [Example 35, 2-[[3-[[4-(4,5-Difluoro-2-methylsulfanyl-phenyl)phenoxy]methyl]benzoyl]-(4-piperidylmethyl)amino]acetic Acid Trifluoroacetate] are within 1.5-fold of each other in EC50: 0.02 µM for the first, 0.019 µM for the second.

From patent US20160046592A1, “PHARMACEUTICAL COMPOSITION FOR THE TREATMENT OF DIABETES” (Ajinomoto Co., Inc., priority 2013, published 2016)
